For 63 molecules, IC50 results are on record in BindingDB's records for doi:10.7270/Q25B012X (Burnham Center For Chemical Genomics, 2012).

As usually defined, the IC50 is the midpoint of a concentration-inhibition curve. The low end stands for greater potency in that assay, the high end for weaker potency in that assay.

Protein Wnt-3a, sequence (P27467 whole entry): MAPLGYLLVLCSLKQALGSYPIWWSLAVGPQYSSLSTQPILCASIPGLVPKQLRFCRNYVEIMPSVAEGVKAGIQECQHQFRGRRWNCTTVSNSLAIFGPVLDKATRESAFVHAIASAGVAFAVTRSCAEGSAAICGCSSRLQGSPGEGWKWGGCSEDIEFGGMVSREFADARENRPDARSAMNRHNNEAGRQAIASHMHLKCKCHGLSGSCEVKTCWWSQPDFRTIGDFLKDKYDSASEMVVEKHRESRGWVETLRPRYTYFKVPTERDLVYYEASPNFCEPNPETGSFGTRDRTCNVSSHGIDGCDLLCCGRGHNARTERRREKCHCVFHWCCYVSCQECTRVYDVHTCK

The experiment has as its target Protein Wnt-3a (Mus musculus, UniProt P27467).
For the molecule `CC(C)(C)c1ccc(C(=O)NC(=S)Nc2ccc(N3CCOCC3)cc2)cc1`, the concentration for half-maximal inhibition (IC50) was above 50 µM.
`O=C(NC1CCCC1)c1cc(COc2ccc3ncccc3c2)on1` had an IC50 above 50 µM.
Then `CCN1C(=O)CCN(C2CCCC2)c2nc(Nc3ccc(C(=O)NC4CCN(C)CC4)cc3OC)ncc21`, with above 50 µM; and `Cc1ccc(-c2csc(NC(=O)c3c(C)noc3C)n2)s1`, with above 50 µM.
With `COc1cccc2nc3c(C(=O)NCCN(C)C)cccc3cc12`, the IC50 was above 50 µM.
The molecule `C=CCN1C(=O)C(=NNC(=S)Nc2cccc(C)c2)c2ccccc21` [1-(3-methylphenyl)-3-[(Z)-(2-oxidanylidene-1-prop-2-enyl-indol-3-ylidene)amino]thiourea] had an IC50 of 29.2 µM.
On to `Cc1cccc(C)c1N=C(S)N(CCN1CCCCCC1)Cc1ccco1` [1-[2-(1-azepanyl)ethyl]-3-(2,6-dimethylphenyl)-1-(2-furanylmethyl)thiourea], for which the IC50 is above 50 µM.
`O=C(C[n+]1cc(-c2ccccc2)n2c1CCCCC2)c1ccc(Cl)cc1` [1-[2-(4-Chloro-phenyl)-2-oxo-ethyl]-3-phenyl-6,7,8,9-tetrahydro-5H-imidazo[1,2-a]azepin-1-ium] showed a half-inhibitory concentration (IC50) above 50 µM.
The value for `CC(=O)N1c2ccc(S(=O)(=O)N3CCC(C(=O)N4CCCCC4)CC3)cc2CC1C` (stereo not drawn) [1-[2-methyl-5-(4-piperidin-1-ylcarbonylpiperidin-1-yl)sulfonyl-2,3-dihydroindol-1-yl]ethanone] was above 50 µM; that for `Brc1ccc(-c2csc(N3CCCCCC3)n2)cc1` [1-[4-(4-bromophenyl)-1,3-thiazol-2-yl]azepane] was above 12.5 µM.
In turn, `CCCCn1c(SCc2c(C)noc2C)nc2cc(S(N)(=O)=O)ccc21` [1-butyl-2-[(3,5-dimethyl-1,2-oxazol-4-yl)methylsulfanyl]benzimidazole-5-sulfonamide] returned an IC50 above 50 µM.
In turn, `Cc1ccc(O)c(NC(=O)COc2cc(C)ccc2C)c1` [2-(2,5-dimethylphenoxy)-N-(2-hydroxy-5-methylphenyl)acetamide] registered an IC50 above 50 µM.
Then `Cc1ccc(C2=C(CC(=O)O)C(=O)CC2)cc1` [2-[2-(4-methylphenyl)-5-oxidanylidene-cyclopenten-1-yl]ethanoic acid], with above 50 µM; and `COc1ccc(-c2c[n+](CC(=O)c3ccccc3)c3n2CCCCC3)cc1` [2-[3-(4-methoxyphenyl)-6,7,8,9-tetrahydro-5H-imidazo[1,2-a]azepin-1-ium-1-yl]-1-phenyl-ethanone;bromide], with above 50 µM; and `COc1cc(C(=O)NC2CCN(C)CC2)ccc1Nc1ncc2c(n1)N(Cc1ccccc1)CCC(=O)N2C` [3-methoxy-4-[[5-methyl-6-oxo-9-(phenylmethyl)-7,8-dihydropyrimido[4,5-b][1,4]diazepin-2-yl]amino]-N-(1-methyl-4-piperidinyl)benzamide], with above 50 µM.
The value for `CC(C)(C)OC(=O)N1CCC(c2cc(-c3cccs3)n[nH]2)CC1` [4-(3-thiophen-2-yl-1H-pyrazol-5-yl)-1-piperidinecarboxylic acid tert-butyl ester] was above 50 µM; that for `Cc1nc2sccn2c1-c1csc(NCc2ccccc2)n1` [4-(6-methyl-5-imidazo[2,1-b]thiazolyl)-N-(phenylmethyl)-2-thiazolamine] was above 50 µM; that for `O=C(Nc1ccncc1)c1ccc(-c2ccccc2)cc1` [4-phenyl-N-(4-pyridyl)benzamide] was above 50 µM.
Consider `CCc1cc(C(=O)NC2CCCN(Cc3ccccc3F)C2)n(C)n1` (stereo not drawn) [5-ethyl-N-[1-[(2-fluorophenyl)methyl]piperidin-3-yl]-2-methyl-pyrazole-3-carboxamide], for which the 50% inhibitory concentration (IC50) is above 50 µM.
The value for `O=C1NC(=Cc2ccc(O)cc2)C(=O)C1=CNCc1ccccc1` [(3Z,5Z)-3-[(benzylamino)methylidene]-5-[(4-hydroxyphenyl)methylidene]pyrrolidine-2,4-dione] was 7.28 µM; that for `Cc1nc2ccccc2c2oc(C(=O)N3CCN(C4CCCCC4)CC3)cc12` [(4-cyclohexylpiperazin-1-yl)-(4-methylfuro[3,2-c]quinolin-2-yl)methanone] was above 50 µM; that for `CCCCCCCOc1ccc(OC(=O)c2cccnc2)cc1` [(4-heptoxyphenyl) pyridine-3-carboxylate] was above 12.5 µM.
For the molecule `CCCCCCCOc1ccc(OC(=O)c2ccncc2)cc1` [(4-heptoxyphenyl) pyridine-4-carboxylate], the IC50 was above 12.5 µM.
Regarding `Cc1cc(N=NCc2ccc(O)cc2O)nc(-n2nc(C)cc2C)n1` [(4E)-4-[[2-[2-(3,5-dimethylpyrazol-1-yl)-6-methyl-pyrimidin-4-yl]hydrazinyl]methylidene]-3-oxidanyl-cyclohexa-2,5-dien-1-one], it took 41.3 µM to reach half-maximal inhibition (IC50).
The value for `CCOc1ccc(-n2c(O)c(CN=Nc3nc(C)cc(C)n3)c3ccccc3c2=O)cc1` [(4Z)-4-[[(4,6-dimethyl-2-pyrimidinyl)hydrazo]methylidene]-2-(4-ethoxyphenyl)isoquinoline-1,3-dione] was 11.2 µM; that for `COCCNC(=O)CSCc1nc(-c2ccc(SC)cc2)oc1C` [MLS000089367] was above 50 µM; that for `CCn1c(=O)cc(SCC(=O)N2CCN(C3CCCCC3)CC2)c2ccccc21` [MLS000092496] was above 50 µM.
Consider `CCCN(CCC)CCNC(=O)c1cc2c(=O)n(C)c3ccccc3c2n1C` [MLS000118109], for which the IC50 is above 50 µM.
Regarding `O=C(Nc1cc2c3c(c1)C1CCCC1CN3CC1CCCC21)c1ccc([N+](=O)[O-])cc1` (stereo not drawn) [MLS000324904], the IC50 is above 12.5 µM.
Then `C[N+]1=C(CC=Nc2ccccc2)C(C)(C)c2ccccc21` [MLS000390698], with above 50 µM.
As for `CC1=CC(C)C2(COC(c3ccc[n+](C)c3)OC2)C(C)C1` (stereo not drawn) [MLS000717774], the concentration for half-maximal inhibition (IC50) was above 50 µM.
Molecule `CC(=O)c1ccc(-[n+]2cc(-c3ccc(C(C)(C)C)cc3)n3c2SCCC3)cc1` [MLS001018012] gave an IC50 above 50 µM.
Molecule `COc1ccc(C(=O)C[n+]2cc(-c3ccc(OC)cc3)n3c2CCCC3)cc1` [MLS001018126] showed an IC50 above 50 µM.
`Clc1ccc(-[n+]2cc(-c3ccc(Br)cc3)n3c2CCCCC3)cc1` [MLS001029582]: the IC50 was above 50 µM.
`CC(NC(=O)c1cc2c(=O)n3ccccc3nc2n(CC2CCCO2)c1=N)c1ccccc1` (stereo not drawn) [MLS001217747] yielded an IC50 above 50 µM.
On to `CC(N=Nc1ccc(Cl)nn1)c1ccccc1O` (stereo not drawn) [MLS001233678], for which the IC50 was above 50 µM.
Then `COc1ccc(CN(C)C(=O)c2cccc(NC(=O)Cc3sc(N4CCCCC4)nc3O)c2)c(OC)c1` [MLS002180955], with 21.7 µM; and `COc1cc(C(=O)NC2CCN(C)CC2)ccc1Nc1ncc2c(n1)N(CCc1ccccc1)CCC(=O)N2C` [MLS002232307], with above 50 µM.
Then `CC(C)(C)[C@H]1COC(=O)[C@H](NC(=O)OCC2c3ccccc3-c3ccccc32)C/C=C\C[C@@H](CC(=O)N(CCO)Cc2ccccc2)C(=O)N1` [MLS002320431], with above 12.5 µM; and `O=c1c2ccccc2sc2c(CO)ccc(NCCN3CCCCC3)c12` [MLS002702047], with above 50 µM.
The molecule `CCOP(=O)(CCP(=O)(OCC)OCC)OCC` [MLS002702923] had a 50% inhibitory concentration (IC50) of 11.8 µM.
For `CN(C)CCn1c2ccccc2c2nc3ccc([N+](=O)[O-])cc3cc21` [N,N-dimethyl-2-(2-nitro-10-indolo[3,2-b]quinolinyl)ethanamine], the IC50 is above 50 µM.
Then `CC(C)C(=O)N1CCN(c2ccccc2NC(=O)COc2ccccc2)CC1` [N-[2-[4-(2-methyl-1-oxopropyl)-1-piperazinyl]phenyl]-2-phenoxyacetamide], with above 50 µM.
Molecule `O=C(Nc1cc(N2CCCCC2)ncn1)c1ccccc1` [N-[6-(1-piperidinyl)-4-pyrimidinyl]benzamide] displayed an IC50 above 50 µM.
Regarding `CCn1c(CC=Nc2ccccc2)[n+](CC)c2cc(Cl)c(Cl)cc21` [N-[(E)-2-[5,6-bis(chloranyl)-1,3-diethyl-benzimidazol-3-ium-2-yl]ethenyl]aniline;iodide], the midpoint of inhibition, the IC50, lay at 7.29 µM.
The molecule `CCC(=O)c1ccc(OCC(O)Cn2c(C)nc3ccccc32)cc1` (stereo not drawn) [SMR000075355] returned an IC50 above 50 µM.
`CCn1c(CC=Nc2ccccc2)[n+](CC)c2ccc(Cl)cc21` [SMR000173759] displayed an IC50 of 26.3 µM.
For the molecule `C[n+]1c2n(c3ccccc31)N=C(c1ccccc1)CS2` [SMR000176360], the IC50 is above 50 µM.
`CCCCCCCNC1=CC(=O)CC(c2ccccc2)C1` (stereo not drawn) [SMR000203844]: the IC50 was above 50 µM.
`CCc1ccccc1NC(=S)NN=C1C(=O)N(C)c2ccc(S(=O)(=O)N3CCOCC3)cc21` [SMR000207996] had an IC50 of 13.3 µM.
As to `CC(=O)c1c(C)[nH]c(C(=O)OCC(=O)Nc2sc3c(c2C#N)CCCC3)c1C` [SMR000249195], the 50% inhibitory concentration (IC50) is above 50 µM.
Then `CC(C)(C)C1CCC(OC(=O)C[N+]2(C)CCCCC2)CC1` (stereo not drawn) [SMR000306329], with above 50 µM.
`O=C(Cc1csc(Nc2[nH]c(=S)nc3ccccc23)n1)NCCCN1CCN(c2ccccc2F)CC1` [SMR000310923] displayed an IC50 above 50 µM.
Molecule `O=C(Cn1c(-c2ccccc2)c[n+]2ccsc12)c1ccc(Br)cc1` [SMR000354292] had an IC50 above 50 µM.
Consider `Clc1ccc(-c2c[n+](Cc3ccc(Cl)cc3Cl)c3n2CCCCC3)cc1` [SMR000420192], for which the IC50 was above 12.5 µM.
Regarding `COc1ccc(Nc2nc(N3CCOCC3)nc(N3CCOCC3)n2)c(OC)c1` [SMR000515822], the IC50 was above 50 µM.
Consider `COc1cc2c(c(OC)c1OC)-c1ccc(N(C)CC(OC)OC)c(=O)cc1[C@@H](NC(C)=O)CC2` [SMR000540275], for which the IC50 was above 50 µM.
For the molecule `CCOc1ccc(-c2nc(CSCC(=O)NC3CC3)c(C)o2)cc1` [SMR000635235], the IC50 was above 50 µM.
On to `CCOc1ccc(-c2nc(CSCC(=O)NCC3CCCO3)c(C)o2)cc1` (stereo not drawn) [SMR000635237], for which the half-inhibitory concentration (IC50) is above 50 µM.
The value for `Cc1ccc(C)c(-c2csc(NC(=O)C3=COCCO3)n2)c1` [SMR000713303] was above 50 µM; that for `CCCc1nc(SCC(=O)Nc2nnc(CC)s2)c2c(=O)n(C)c(=O)n(C)c2n1` [SMR000806028] was above 50 µM.
Regarding `Brc1ccc(-[n+]2c(-c3ccccc3)cc(-c3ccccc3)cc2-c2ccccc2)cc1` [SMR000841262], it took 15.6 µM to reach half-maximal inhibition (IC50).
On to `COc1cc(C(=O)NC2CCN(C)CC2)ccc1Nc1ncc2c(n1)N(C1CCCCC1)CCC(=O)N2C` [SMR001307858], for which the IC50 is above 50 µM.
